Patent US8178506B2, “Oligomeric compounds and compositions for use in modulation of small non-coding RNAs” (Regulus Therapeutics Inc., priority 2003, dated 2012)
e = 2'-O-(2-methoxyethyl) (MOE); d = 2'-deoxy (DNA)

Experiments:
[1] = tested on: differentiated adipocytes; assay: Hallmark genes and triglycerides in differentiated adipocytes; format: cell-based, human; settings: 250 nM, transfected day nine, measured 12th day post differentiation
Source text: The effect of the oligomeric compounds of the present invention targeting miRNAs on the expression of markers of cellular differentiation was examined in differentiated adipocytes.
As previously described, the HSL, aP2, Glut4, and PPARγ genes play important rolls in the uptake of glucose and the metabolism and utilization of fats. Also as previously described, an increase in triglyceride content is another well-established marker for adipocyte differentiation. Human white preadipocytes (Zen-Bio Inc., Research Triangle Park, N.C.) were grown in preadipocyte media (ZenBio Inc.). After the cells reached confluence (approximately three days), they were exposed to differentiation media (Zen-Bio, Inc.) containing a PPAR-γ agonist, IBMX, dexamethasone, and insulin for three days. Cells were then fed Adipocyte Medium (Zen-Bio, Inc.), which was replaced at 2 to 3 day intervals. One day before transfection, 96-well plates were seeded with 3000 cells/well. Cells were then transfected on day nine post-differentiation, according to standard published procedures with 250 nM oligonucleotide in LIPOFECTIN™ (Invitrogen Corporation, Carlsbad, Calif.) (Monia et al., J. Biol. Chem. 1993 268(19):14514-22). Oligomeric compounds were tested in triplicate on each 96-well plate, and the effect of TNF-α, known to inhibit adipocyte differentiation, was also measured in triplicate. Oligomeric compound treatments and transfectant-only negative controls may be measured up to six times per plate. On day twelve post-differentiation, cells were washed and lysed at room temperature, and the expression of the four hallmark genes, HSL, aP2, Glut4, and PPARγ, as well as triglyceride (TG) accumulation were measured in adipocytes transfected with the uniform 2′-MOE phosphorothioate (PS) previously described in Example 13 as well as the chimeric gapmer oligomeric compounds targeting the mir-143 miRNA and the mir-143 pri-miRNA described in Example 16. On day twelve post-differentiation, cells were lysed in a guanadinium-containing buffer and total RNA was harvested. The amount of total RNA in each sample was determined using a Ribogreen Assay (Molecular Probes, Eugene, Oreg.). Real-time PCR was performed on the total RNA using primer/probe sets for the adipocyte differentiation hallmark genes Glut4, HSL, aP2, and PPARγ. Triglyceride levels as well as mRNA levels for each of the four adipocyte differentiation hallmark genes are expressed relative to control levels (control=treatment with ISIS-29848 (SEQ ID NO: 737)).

[2] = tested on: IL-6 mRNA; assay: IL-6 mRNA in LPS-activated primary murine macrophages; format: cell-based, mouse; settings: average of 3 treatments
In short: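 Thioglycollate-elicited peritoneal macrophages from female C57Bl/6 mice, transfected with miRNA-targeting oligomeric compounds via FuGENE 6 (1 μL per 100 nM compound) for ~24–28 h at 37 °C, optionally primed 4 h with 100 ng/mL IFN-gamma, then stimulated 24 h with 100 ng/mL LPS. IL-6 mRNA quantified by real-time PCR.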

Row | Substance | expression of hallmark marker genes in differentiated adipocytes [1] | IL-6 mRNA expression, % UTC ([2]; 75 nM, +IFN) | IL-6 mRNA expression, % UTC ([2]; 75 nM, −IFN) | IL-6 mRNA expression, % UTC ([2]; 150 nM, +IFN) | IL-6 mRNA expression, % UTC ([2]; 150 nM, −IFN) | IL-6 mRNA expression, % UTC ([2]; 300 nM, +IFN) | IL-6 mRNA expression, % UTC ([2]; 300 nM, −IFN) | IL-6 mRNA expression, % UTC ([2]; 600 nM, +IFN) | IL-6 mRNA expression, % UTC ([2]; 600 nM, −IFN)
1 | CTAGTGGTCCTAAACATTTCAC (chemistry not given here) [ISIS 327878, uniform 2′-MOE PS; targets mir-203] | decreased expression of the aP2, HSL, Glut4 and PPARγ marker genes | – | – | – | – | – | – | – | –
2 | 129690 (antisense TTAGAATACGTCGCGTTATG; sugars from the 5' end e5 d10 e5, all phosphorothioate, methylation of C not given here) [compound 129690] | – | 92 % UTC | 98 % UTC | 86 % UTC | 99 % UTC | 94 % UTC | 109 % UTC | 203 % UTC | 258 % UTC
